Some test systems named below: SK-MEL-5 melanoma; COLO 205 colon; T-47D breast; HL-60(TB) leukemia; MALME-3M melanoma; EKVX NSCLC; SF-268 CNS; A549 NSCLC; HCT-15 colon.
Common to all, as to assay: NCI tumour cell line growth inhibition, 48 h

Several values for one entry are separate records, joined by “and”; a condition that tells them apart may be missing. Identical values can stand only once.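 Where inhibition never reached the appropriate level, the endpoint shown equals the highest concentration tested. Otherwise, values were interpolated linearly from a five-concentration, 48-hour dose response in 96-well plates. GI50: concentration for 50% inhibition of growth. TGI is the concentration that stops growth completely.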 Activity calls are given as the source filed them. No stated cut-off is given here; in the data, active means GI50 below about 0.43 µM; inactive means the rest.

On to `O=C1C(Cl)=C(NCCN2CCOCC2)C(=O)c2ncccc21`, for which the GI50 was 1.72 µM with SK-MEL-5 melanoma; 1.61 µM in the test with COLO 205 colon; 1.83 µM in the test on T-47D breast; 1.43 µM in the test with HL-60(TB) leukemia; 1.13 µM in the test on MALME-3M melanoma; 3.8 µM in the test on SF-268 CNS. Also, the GI50 in the test with HCT-15 colon was 1.68 µM. Further, the TGI in the test with SK-MEL-5 melanoma is 2.32 µM and 3.16 µM; with COLO 205 colon, 3.43 µM; in the test on T-47D breast it was 5.74 µM and 4.49 µM; in the test with HL-60(TB) leukemia it was 4.44 µM; in the test on MALME-3M melanoma, 3.07 µM and 2.63 µM; with EKVX NSCLC, 3.41 µM and 3.6 µM. The TGI with SF-268 CNS was 4.27 µM and 15.5 µM; with A549 NSCLC, 4.18 µM and 3.87 µM; with HCT-15 colon, 4.17 µM and 3.62 µM.

As to `Nc1nc2c(nnn2C2CC(O)C(CO)O2)c(=O)[nH]1` (stereo not given), the GI50 is 14.7 µM in the test with SK-MEL-5 melanoma; 1.89 µM with COLO 205 colon; 4.59 µM in the test on T-47D breast; 1.15 µM with HL-60(TB) leukemia; 5.53 µM in the test on MALME-3M melanoma; 93.5 µM in the test with EKVX NSCLC. Besides, the GI50 was 7.99 µM with SF-268 CNS, 20.3 µM with A549 NSCLC and 3.65 µM with HCT-15 colon. For the same molecule, the TGI in the test on SK-MEL-5 melanoma is over 89 µM; in the test on COLO 205 colon, 6.3 µM; in the test on T-47D breast, over 65.1 µM; in the test on HL-60(TB) leukemia, over 38.1 µM; in the test with MALME-3M melanoma it was over 100 µM; in the test on EKVX NSCLC, over 100 µM. The TGI with SF-268 CNS, in the test with A549 NSCLC and with HCT-15 colon was over 100 µM each time.

For `CC1CN1C(=O)NCCCCCCNC(=O)N1CC1C` (stereo not given), the TGI in the test on SK-MEL-5 melanoma, with COLO 205 colon, with T-47D breast, in the test with HL-60(TB) leukemia, in the test on MALME-3M melanoma and with EKVX NSCLC was over 100 µM in each case. For the same molecule, the TGI in the test on SF-268 CNS, in the test with A549 NSCLC and with HCT-15 colon was over 100 µM throughout.

With `O=C(O)C(=Cc1ccc(-c2ccccc2)cc1)C(=O)O`, the TGI in the test on SK-MEL-5 melanoma was 23.9 µM; with COLO 205 colon, 25.1 µM; in the test on T-47D breast, 34 µM; in the test with HL-60(TB) leukemia it was 26.6 µM; in the test with MALME-3M melanoma, 39.7 µM; in the test on EKVX NSCLC, over 100 µM. In addition, the TGI in the test with SF-268 CNS was over 59.3 µM; in the test on A549 NSCLC, over 58.8 µM; with HCT-15 colon, over 61 µM.

In the case of `Cc1ccc2c(c1)Sc1c(ccc3ccccc13)N2`, the GI50 was 12.4 µM with SK-MEL-5 melanoma; 76.1 µM in the test with COLO 205 colon; 38.3 µM in the test with T-47D breast; 34.2 µM in the test with HL-60(TB) leukemia; over 100 µM in the test on MALME-3M melanoma; over 100 µM in the test on EKVX NSCLC. The GI50 in the test with SF-268 CNS was 69.2 µM; with A549 NSCLC it was 92.8 µM; with HCT-15 colon, 1.45 µM. For the same molecule, the TGI in the test on SK-MEL-5 melanoma, in the test with COLO 205 colon, with T-47D breast, in the test with HL-60(TB) leukemia, in the test with MALME-3M melanoma and in the test with EKVX NSCLC was over 100 µM in each case. Further, the TGI in the test with SF-268 CNS, in the test on A549 NSCLC and in the test with HCT-15 colon was over 100 µM each time.

For the molecule `O=C(Nc1ccncc1)C(=O)c1cn(S(=O)(=O)c2cccc(F)c2)c2ccccc12`, the GI50 is 2.83 µM with SK-MEL-5 melanoma; 32.4 µM in the test with COLO 205 colon; 4.25 µM in the test on T-47D breast; 3.36 µM with HL-60(TB) leukemia; 12.8 µM in the test on MALME-3M melanoma; 4.17 µM in the test with EKVX NSCLC. For the same molecule, the GI50 in the test on SF-268 CNS is 10.9 µM; in the test with A549 NSCLC, 13.2 µM; in the test on HCT-15 colon, 2.74 µM. The TGI in the test on SK-MEL-5 melanoma is 37.7 µM; with COLO 205 colon, over 100 µM; in the test with T-47D breast, over 100 µM; in the test on HL-60(TB) leukemia, over 100 µM; in the test on MALME-3M melanoma it was over 100 µM; in the test with EKVX NSCLC it was over 100 µM. Besides, the TGI with SF-268 CNS, with A549 NSCLC and in the test on HCT-15 colon was over 100 µM in each case.

Consider `COc1ccc(C(=O)C#Cc2cnc(OC)nc2OC)cc1`, for which the GI50 in the test on SK-MEL-5 melanoma was 25600 µM; in the test with HL-60(TB) leukemia it was 22100 µM; in the test on MALME-3M melanoma, 16600 µM; with EKVX NSCLC, 23700 µM; with HCT-15 colon, 17200 µM. In addition, the TGI with COLO 205 colon worked out at 42100 µM; in the test on T-47D breast it was 61400 µM; in the test with SF-268 CNS it was 7.41 µM; in the test on A549 NSCLC, 15.7 µM. The outcome in the test with SF-268 CNS and with A549 NSCLC was inactive.

`O=C(O)/C=C(\c1nc2ccc([N+](=O)[O-])cc2[nH]1)c1cc(Cl)ccc1O`: the GI50 was 1.1 µM in the test with SK-MEL-5 melanoma; 2.87 µM with COLO 205 colon; 2.3 µM in the test on T-47D breast; 2.42 µM with HL-60(TB) leukemia; 1.96 µM with MALME-3M melanoma; 2.44 µM in the test on EKVX NSCLC. The results for the GI50 in the test on SF-268 CNS, in the test on A549 NSCLC and in the test on HCT-15 colon were 3.62 µM, 3.07 µM and 2.9 µM, respectively. In addition, the TGI in the test with SK-MEL-5 melanoma was 4.06 µM; with COLO 205 colon, 11.2 µM; in the test on T-47D breast it was 9.38 µM; with HL-60(TB) leukemia, 30.4 µM; with MALME-3M melanoma, 7.52 µM; in the test on EKVX NSCLC it was 28.2 µM. Also, the TGI was 28.3 µM in the test on SF-268 CNS, 14.1 µM in the test with A549 NSCLC and 20.3 µM in the test on HCT-15 colon.

For the molecule `COc1cc(C(=O)CBr)c(OC)cc1C`, the TGI in the test on SK-MEL-5 melanoma, in the test with COLO 205 colon, in the test with T-47D breast, in the test on HL-60(TB) leukemia, in the test on MALME-3M melanoma and in the test with EKVX NSCLC was over 100 µM in each case. Besides, the TGI in the test with SF-268 CNS, in the test on A549 NSCLC and in the test with HCT-15 colon was over 100 µM throughout.

With `O=C1c2cccc([N+](=O)[O-])c2C(=O)N1c1ncn[nH]1`, the TGI with SK-MEL-5 melanoma, in the test with COLO 205 colon, with T-47D breast, with HL-60(TB) leukemia, with MALME-3M melanoma and in the test on EKVX NSCLC was over 100 µM each time. Also, the TGI with SF-268 CNS, in the test on A549 NSCLC and with HCT-15 colon was over 100 µM throughout.

The values above are taken from PubChem BioAssay (NCI).
